Legend:
Assay type in all cases: cell-based
[1] = test system: Hep G2 (human hepatoma carcinoma cell); assay: MTT cell viability, human solid tumor cells; details: HepG2, 72 h
Experimental: (§1) Well-growing cells of above were obtained and inoculated into wells of a 96-well cell culture plate at 5000 cells/well. Individual compounds of various concentrations were added, mixed uniformly, and incubated (5% CO2) at 37° C. for 72 hours. Then the cell viability was determined by the MTT method.
(§2) b) Determine the inhibitory effects of TTD in combination with Ada A on the human solid tumor cells. The pretreatment of the cells was the same as in a). The control group was not treated with the compound while administered. […] As to the combination group, two compounds were added together into the same group of wells, with the fmal concentration being the concentration to which the IC50 of the single drugs correspond. After 72 hours of incubation, the MTT method was used for the determination of cell viability. The cell viability of the control group was set to 100% in this experiment, and the TTD, Ada A single drug and combined effects on cell viability (%) were calculated.

[2] = test system: Hep2 (laryngeal carcinoma); assay: MTT cell viability, human solid tumor cells; details: HEp-2, 72 h
Experimental: as §1, §2

PC-3 (prostate cancer) = assay: MTT cell viability, human solid tumor cells; details: 72 h
Experimental: as §1, §2

[3] = test system: CNE (nasopharyngeal carcinoma cell); assay: MTT cell viability, human solid tumor cells; details: 72 h
Experimental: as §1, §2

[4] = test system: Hela (human cervical cancer cell); assay: MTT cell viability, human solid tumor cells; details: HeLa, 72 h
Experimental: as §1, §2

[5] = test system: SPC-A-1 (human lung adenocarcinoma cell); assay: MTT cell viability, human solid tumor cells; details: SPCA1, 72 h
Experimental: as §1, §2

[6] = test system: RKO (human colon adenocarcinoma cell); assay: MTT cell viability, human solid tumor cells; details: 72 h
Experimental: as §1, §2

[7] = test system: SK-OV-3 (ovarian cancer cell); assay: MTT cell viability, human solid tumor cells; details: SK-OV-3, 72 h
Experimental: as §1, §2

[8] = test system: Becap-37 (human breast cancer cell); assay: MTT cell viability, human solid tumor cells; details: 72 h
Experimental: as §1, §2

[9] = test system: Panc-1 (pancreatic cancer); assay: MTT cell viability, human solid tumor cells; details: PANC-1, 72 h
Experimental: as §1, §2

[10] = test system: U87-MG (malignant glioma cell); assay: MTT cell viability, human solid tumor cells; details: U-87 MG, 72 h
Experimental: as §1, §2

MG63 (osteosarcoma) = assay: MTT cell viability, human solid tumor cells; details: MG-63, 72 h
Experimental: as §1, §2

A549 (human lung cancer) = assay: MTT cell viability, human solid tumor cells; details: A549, 72 h
Experimental: as §1, §2

[11] = test system: Huh7 (human liver cancer cell); assay: MTT cell viability, human solid tumor cells; details: Huh-7, 72 h
Experimental: as §1, §2

[12] = test system: MGC-803 (human gastric cancer cell); assay: MTT cell viability, human solid tumor cells; details: MGC-803, 72 h
Experimental: as §1, §2

[13] = test system: CaES-17 (esophageal cancer cell); assay: MTT cell viability, human solid tumor cells; details: CaEs17, 72 h
Experimental: as §1
b) Determine the inhibitory effects of TTD in combination with Ada A on the human solid tumor cells. The pretreatment of the cells was the same as in a). The control group was not treated with the compound while administered. The two single-drug groups were added with respective active component to the concentration under which the IC50 of two compounds in a) achieve. As to the combination group, two compounds were added together into the same group of wells, with the fmal concentration being the concentration to which the IC50 of the single drugs correspond. After 72 hours of incubation, the MTT method was used for the determination of cell viability. The cell viability of the control group was set to 100% in this experiment, and the TTD, Ada A single drug and combined effects on cell viability (%) were calculated.

[14] = test system: Jurkat cells (acute lymphoblastic leukemia); assay: MTT cell viability, leukemia cells, TTD and Acla A alone and combined; details: Homo sapiens, 72 h
Experimental: (§3) Well-growing leukemia cells were obtained and inoculated into wells of a 96-well cell culture plate at 5000 cells/well. Individual compounds of various concentrations were added, mixed uniformly, and incubated (5% CO2) at 37° C. for 72 hours. Then the cell viability was determined by the MTT method.
(§4) b) Determine the inhibitory effects of TTD in combination with Ada A on leukemia cells in vitro. The pretreatment of the cells was the same as in a). The control group was not treated with the compound while administered. […] After 72 hours of incubation, the MTT method was used for the determination of cell viability. The cell viability of the control group was set to 100% in this experiment, and the TTD, Ada A single drug and combined effects on cell viability (%) were calculated.

[15] = test system: k562/ADR leukemia cells (drug-resistant chronic myeloid leukemia); assay: as above; details: Homo sapiens, K562/Adr, 72 h
Experimental: as §3, §4

[16] = test system: kasumi-1 cells (acute myeloid leukemia M2 type); assay: as above; details: Homo sapiens, Kasumi 1, 72 h
Experimental: as §3, §4

[17] = read-out: concentration (IC50 value of 72 hours)

CC[C@@]1(O)C[C@H](O[C@H]2C[C@H](N(C)C)[C@H](O[C@H]3C[C@H](O)[C@H](O[C@H]4CCC(=O)[C@H](C)O4)[C@H](C)O3)[C@H](C)O2)c2c(cc3c(c2O)C(=O)c2c(O)cccc2C3=O)[C@H]1C(=O)OC [Acla A, aclarubicin A]
viability at 0.25 µg/mL ([1]; read-out: CV (cell viability)): 51.6%
IC50 [1, 17]: 0.25 µg/mL
viability at 0.25 µg/mL ([2]; read-out: CV (cell viability)): 51%
IC50 [2, 17]: 0.25 µg/mL
viability at 0.8 µg/mL (PC-3 (prostate cancer); read-out: CV (cell viability)): 46.1%
IC50 (PC-3 (prostate cancer); [17]): 0.8 µg/mL
viability at 0.15 µg/mL ([3]; read-out: CV (cell viability)): 48.9%
IC50 [3, 17]: 0.15 µg/mL
viability at 0.095 µg/mL ([4]; read-out: CV (cell viability)): 52.7%
IC50 [4, 17]: 0.095 µg/mL
viability at 0.03125 µg/mL ([5]; read-out: CV (cell viability)): 50.6%
IC50 [5, 17]: 0.0312 µg/mL
viability at 0.04 µg/mL ([6]; read-out: CV (cell viability)): 49.6%
IC50 [6, 17]: 0.04 µg/mL
viability at 0.25 µg/mL ([7]; read-out: CV (cell viability)): 53.4%
IC50 [7, 17]: 0.25 µg/mL
viability at 0.5 µg/mL ([8]; read-out: CV (cell viability)): 44.8%
IC50 [8, 17]: 0.5 µg/mL
viability at 0.25 µg/mL ([9]; read-out: CV (cell viability)): 58%
IC50 [9, 17]: 0.25 µg/mL
viability at 0.21 µg/mL ([10]; read-out: CV (cell viability)): 54.1%
IC50 [10, 17]: 0.21 µg/mL
viability at 0.1 µg/mL (MG63 (osteosarcoma); read-out: CV (cell viability)): 46.6%
IC50 (MG63 (osteosarcoma); [17]): 0.1 µg/mL
viability at 0.08 µg/mL (A549 (human lung cancer); read-out: CV (cell viability)): 50.4%
IC50 (A549 (human lung cancer); [17]): 0.08 µg/mL
viability at 0.05 µg/mL ([11]; read-out: CV (cell viability)): 44.5%
IC50 [11, 17]: 0.05 µg/mL
viability at 0.1 µg/mL ([12]; read-out: CV (cell viability)): 42.2%
IC50 [12, 17]: 0.1 µg/mL
viability at 0.24 µg/mL ([13]; read-out: CV (cell viability)): 45.4%
IC50 [13, 17]: 0.24 µg/mL
viability at 0.029 µg/mL ([14]; read-out: CV (cell viability)): 58%
IC50 [14, 17]: 0.029 µg/mL
viability at 0.09 µg/mL ([15]; read-out: CV (cell viability)): 49.1%
IC50 [15, 17]: 0.09 µg/mL
viability at 0.04 µg/mL ([16]; read-out: CV (cell viability)): 52.5%
IC50 [16, 17]: 0.04 µg/mL

Reference: patent US20150290232A1, “DRUG COMPOSITION FOR TREATING TUMORS AND APPLICATION THEREOF” (priority 2012, published 2015)
